The record followed here is US20250090510A1, “eIF4G1-eIF1 INHIBITORS AND USE THEREOF” (YEDA RESEARCH AND DEVELOPMENT CO. LTD., priority 2022, published 2025).

The structures appear in SMILES notation.

Assay [1] relates to P. falciparum translation. The assay is described as follows: Puromycin incorporation western blot in P. falciparum blood cultures. Conditions: i14G1-10 20 uM, i14G1-12 10 uM; 1 hour, puromycin 5 minutes. Format: cell-based, Plasmodium falciparum. The method, then: (§1) FIGS. 8A-B: (8A) Bar graph of percent parasitemia in blood samples treated with i14G1-10 (20 μM) and i14G1-12 (10 μM) for 1 hour. DMSO treatment was used as a negative control. *=pVal; <0.05, ***=pVal<0.001 (8B) Photograph of a western blot and corresponding gel total protein staining of P. falciparum blood cultures treated with the inhibitors with or without the addition of puromycin. DMSO treatment and untreated cultures were used as a negative control.
Next, the method of action that caused the growth/survival inhibition was tested. […] Puromycin labels newly synthesized proteins and cell lysates were analysed by western blot with anti-puromycin antibody (FIG. 8B).
(Immunoblotting shows a protein as a band on a membrane.)

The subject of a further assay is HEK293T cells. The experiment in a line: Polysome profile by sucrose gradient sedimentation. It counts as cell-based, human. To be noted: i14G1-12 10 μM, 3 h; for 80S monoribosomes in polysome profile: i14G1-10 20 μM. The method, then:
FIGS. 3A-F: i14G1-10 and i14G1-12 inhibit mRNA translation and sensitize cell survival of eIF4G1 and eIF1 depleted cells. (3A) In-vitro translation using rabbit reticulocyte lysate which was pre-incubated with different concentrations of i14G1-10 or i14G1-12 for 10 minutes followed by the addition of capped firefly luciferase mRNA. After 90 minutes at 30° C., the luminescence signal was measured and the IC50 was calculated. The data represents mean±SEM of 6 independent repeats. (3B) HEK293T cells were treated with DMSO (vehicle control), and sub-cytotoxic concentrations of i14G1-10 (20 μM) and i14G1-12 (10 μM) for 3h. Cell lysates were then subjected to sucrose gradient sedimentation to obtain polysome profiles. (3C) HEK293T cells were treated with the indicated concentrations of i14G1-10 and i14G-12 for 3 h, followed by the addition of puromycin (10 μg/ml) for 5 minutes, after which cells were lysed and analyzed by western blot using an anti-puromycin antibody and anti-GAPDH antibody that serves as a loading control. The graph represents the mean±SEM chemiluminescence signal intensity of puromycin labeling normalized to GAPDH of 3 independent experiments. The calculated IC-50 is shown. (3D) HEK293T cells were transfected with either control or eIF4G1 siRNA in the absence or presence of eIF4G1 expression plasmid. As the eIF4G1 siRNA pool is directed against the 3′UTR, which is absent from the eIF4G1 expression plasmid, the exogenous eIF4G1 is resistant to the siRNA. […] The calculated IC-50 is shown. (3E) The graphs represent cell viability of the indicated cell lines in the presence of increasing concentrations of i14G1-10 and i14G1, analyzed by Luminescent Cell Viability Assay. […]
Polysome profile and real-time PCR. […] Gradients were fractionated with continuous absorbance measurement at 254 nm using ISCO absorbance detector UA-6. Fractions were pooled according to their absorbance into Free, Light, and Heavy ribosomal fractions. […]

Assay [2] concerns Plasmodium falciparum NF54 strain. The experiment in a line: Parasitemia assay in blood cultures. Format: cell-based. Conditions: i14G1-10 20 uM, i14G1-12 10 uM; 1 hour, wash, measured 24 hours later. The procedure:
as §1
From the same flask with -3-4% parasitemia, parasites were plated at 5 ml/well into six well-plates. To the trophozoite stage of development, i14G1-10, i14G1-12, or DMSO, were added and incubated at 37° C. with shaking. After one hour of incubation, from each sample, 1 ml of culture was taken. […]
The next day, the parasitemia (the number of iRBCs divided by the number of total RBCs) was measured by microscopy. The gold-standard method for identifying and quantifying malaria parasites as disclosed in Murphy et al., 2013, “Malaria diagnostics in clinical trials.” Am J Trop Med Hyg., 89(5):824-39, herein incorporated by reference in its entirety, was used. […] Infected RBCs were quantified by eye. No less than 30 fields of view were counted to find the final parasitemia percent.
Parasitaemia levels were measured 24 hours later.

`O=C(/C=C/Sc1ccc(C(F)(F)F)cn1)c1ccccc1` [i14G1-10]: the “protein synthesis (puromycin incorporation)” value in assay [1] is on record as “inhibited protein synthesis”. Moreover, the “80S monoribosomes in polysome profile” value in the assay on HEK293T cells is “increase in 80S monoribosomes”. In addition, the “reduction of parasite levels (parasitaemia)” value in assay [2] was 42%.

As to `Cn1ccnc1S/C(=C/C=C(C#N)C#N)c1ccc(Cl)cc1` [i14G1-12], in assay [1], the “protein synthesis (puromycin incorporation)” value is reported as “inhibited protein synthesis”. For the same compound, in the assay with HEK293T cells, the “80S monoribosomes in polysome profile” value is “increase in 80S monoribosomes” and the “heavy polysomal fractions in polysome profile” value is on record as “substantial decrease in the heavy polysomal fractions”. The “reduction of parasite levels (parasitaemia)” value in assay [2] turned out to be 69%.
